Measurements published in article PMC11714206, “Massively Parallel Screening of Toll/Interleukin‐1 Receptor (TIR)‐Derived Peptides Reveals Multiple Toll‐Like Receptors (TLRs)‐Targeting Immunomodulatory Peptides” (Advanced Science, 2024).

Target: T1, MyD88^TIR (Homo sapiens, UniProt Q99836)
T1 construct: MyD88 (residues 148–296); 6xHis; made in house; host or cells: E. coli BL21 (DE3)
Assay: T‐Surf phage library (P8 and P3) selection against MyD88^TIR, four rounds, NGS read counts
Assay type: binding
Conditions: for Population: 4th round of selection against MyD88 TIR, share of NGS reads; for P8_MyD88 Rank (after) / P8_MyD88 Rank (before): P8 library; for P3_MyD88 Rank (after) / P3_MyD88 Rank (before): P3 library
Method in brief: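 P8 and P3 T‐Surf libraries panned against plate-coated TIR domains (5 µg mL^−1), 1 h binding at RT, acid elution and TG1/helper-phage amplification per round. After four rounds, pools were PCR-barcoded and sequenced (NovaSeq, 100 bp paired-end, Phred ≥30); peptides ranked by read counts.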

[1] = P8_MyD88 pool: P8 T-Surf phage library
[2] = 4R selection against MyD88, rank after grouping
[3] = 4R selection against MyD88, rank before grouping
[4] = selection against MyD88, rank by count after grouping
[5] = selection against MyD88, rank by count before grouping
[6] = selection against MyD88, rank after grouping
[7] = selection against MyD88, rank before grouping
[8] = P8_MyD88: rank by NGS read count after grouping
[9] = P8_MyD88: rank by NGS read count before grouping
[10] = P3_MyD88: rank by count after grouping
[11] = P3_MyD88: rank by count before grouping
[12] = selection against MyD88 TIR, rank by count after grouping
[13] = selection against MyD88 TIR, rank by count before grouping
[14] = P8_MyD88: rank by count after grouping
[15] = P8_MyD88: rank by count before grouping
[16] = P3_MyD88 pool: P3 T-Surf phage library

T1 sequence (Q99836 148-296): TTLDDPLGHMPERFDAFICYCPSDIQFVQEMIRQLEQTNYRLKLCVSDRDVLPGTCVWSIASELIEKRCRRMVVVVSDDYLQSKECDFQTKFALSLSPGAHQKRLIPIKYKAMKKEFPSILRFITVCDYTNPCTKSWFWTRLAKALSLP

DPQDLEWFYERLVSLI
Population [1]: 0.01%

LVYHWIDWVYFVGIED
P8_MyD88 Rank (after) [2]: 659
P8_MyD88 Rank (before) [3]: 3211

DHLDPSHLRKQSGEFG
P3_MyD88 Rank (after) [4]: 734
P3_MyD88 Rank (before) [5]: 1991

DPKALQWFYERLVSLI
P8_MyD88 Rank (after) [6]: 562
P8_MyD88 Rank (before) [7]: 3042

VANIGLIGSILWALK
Rank (after) [8]: 942
Rank (before) [9]: 2163

KEPERYQFAIPERDFP
P3_MyD88 Rank (after) [6]: 540
P3_MyD88 Rank (before) [7]: 3681

VDPTHIRNQTGRYEKA
P3_MyD88 Rank (after) [2]: 642
P3_MyD88 Rank (before) [3]: 1768

NELVHVWSSKANTWW
P3_MyD88 Rank (after) [2]: 628
P3_MyD88 Rank (before) [3]: 3431

RFWERLRPALKERLP
Rank (after) [10]: 449
Rank (before) [11]: 2551

YYLEPIYLRKQSGDFG
P3_MyD88 Rank (after) [12]: 283
P3_MyD88 Rank (before) [13]: 1475

KEVKGWRDALTTVASL
P3_MyD88 Rank (after) [12]: 252
P3_MyD88 Rank (before) [13]: 3659

DPHDLDWFYERLVSLL
Rank (after) [14]: 143
Rank (before) [15]: 1072

NDSLFWDRLLYSLHVTE
Rank (after) [14]: 187
Rank (before) [15]: 270

DPQVLEWLYKRLFSQM
P8_MyD88 Rank (after) [4]: 677
P8_MyD88 Rank (before) [5]: 2648

VSSFISYLIAAFNRQG
Rank (after) [14]: 116
Rank (before) [15]: 124
Population [1]: 0.0173%

DWVWEYLLPNVERPEG
Rank (after) [8]: 880
Rank (before) [9]: 2458

GSFRESLWRLLELSKK
Rank (after) [10]: 465
Rank (before) [11]: 1859

YLLLNVFQIIFARGPE
P8_MyD88 Rank (after) [6]: 546
P8_MyD88 Rank (before) [7]: 2018

VQWDDPWFWDKLAY
P8_MyD88 Rank (after) [2]: 623
P8_MyD88 Rank (before) [3]: 2231

FAANPLSFHVRVKLGG
P8_MyD88 Rank (after) [6]: 501
P8_MyD88 Rank (before) [7]: 1303

LVAHEISKKMKIFATF
Population [16]: 0.00291%

EWIREQLRPALKEHLP
Population [16]: 0.00437%

YTALTNRGFHTFLDND
Rank (after) [10]: 479
Rank (before) [11]: 1631

DPQDLVWFYKRLFSQM
Rank (after) [8]: 977
Rank (before) [9]: 2720

YAFTGQLNQYLVQRGV
P3_MyD88 Rank (after) [2]: 623
P3_MyD88 Rank (before) [3]: 1538

WALNELVEIYQAYKEL
P8_MyD88 Rank (after) [12]: 273
P8_MyD88 Rank (before) [13]: 521

DHHMDLPRDTAIKPEILG
P3_MyD88 Rank (after) [2]: 661
P3_MyD88 Rank (before) [3]: 2060

DPQDLDWFYERVVGLF
Rank (after) [8]: 914
Rank (before) [9]: 2759

HWIEWEYFVGIEEHIK
Rank (after) [14]: 397
Rank (before) [15]: 3541

NQWRNALTAAANLSLS
P3_MyD88 Rank (after) [2]: 675
P3_MyD88 Rank (before) [3]: 3507

PQDLQWFYERLVSLI
Rank (after) [14]: 150
Rank (before) [15]: 186
Population [1]: 0.00694%

DWVWDYLLPNLEGPG
P8_MyD88 Rank (after) [12]: 260
P8_MyD88 Rank (before) [13]: 1038

DPPLLHGLYERLVILF
P8_MyD88 Rank (after) [6]: 485
P8_MyD88 Rank (before) [7]: 2602

YASSSWALDELWLILEQR
Rank (after) [8]: 961
Rank (before) [9]: 1883

EWMREQRRPALKERLP
P3_MyD88 Rank (after) [2]: 599
P3_MyD88 Rank (before) [3]: 2180

LSRVPGVHDFRGLVDI
Rank (after) [10]: 441
Rank (before) [11]: 2377

PVAHDLSKKMKIFATI
Rank (after) [10]: 474
Rank (before) [11]: 2698

PQVVACFFQRLESMIL
Rank (after) [8]: 871
Rank (before) [9]: 3403

WFLEPLEKILQAHGTT
P8_MyD88 Rank (after) [2]: 600
P8_MyD88 Rank (before) [3]: 1360
